Measurements: the NIST ThermoML archive (doi:10.1016/j.fluid.2006.03.015)

Test: molar heat capacity at constant pressure
Conditions: 101.33 kPa, Liquid

CCCCCCCCn1cc[n+](C)c1.O=S(=O)([O-])C(F)(F)F [1-octyl-3-methylimidazolium trifluoromethanesulfonate]
Conditions	molar heat capacity at constant pressure [J/K/mol]
313.17 K, Large sample (1 g) DSC	588
315.15 K, Small sample (50 mg) DSC	604
318.14 K, Large sample (1 g) DSC	592
320.15 K, Small sample (50 mg) DSC	608
323.13 K, Large sample (1 g) DSC	595
325.15 K, Small sample (50 mg) DSC	612
328.13 K, Large sample (1 g) DSC	595
328.15 K, modulated-temperature differential scanning calorimetry MDSC	599
330.15 K, Small sample (50 mg) DSC	612
333.14 K, Large sample (1 g) DSC	595
333.15 K, modulated-temperature differential scanning calorimetry MDSC	603
335.15 K, Small sample (50 mg) DSC	616
338.14 K, Large sample (1 g) DSC	598
338.15 K, modulated-temperature differential scanning calorimetry MDSC	606
340.15 K, Small sample (50 mg) DSC	620
343.14 K, Large sample (1 g) DSC	599
343.15 K, modulated-temperature differential scanning calorimetry MDSC	609
345.15 K, Small sample (50 mg) DSC	623
348.15 K, modulated-temperature differential scanning calorimetry MDSC	612
348.17 K, Large sample (1 g) DSC	599
350.15 K, Small sample (50 mg) DSC	627
353.13 K, Large sample (1 g) DSC	601
353.15 K, modulated-temperature differential scanning calorimetry MDSC	616
355.15 K, Small sample (50 mg) DSC	631
358.15 K, Large sample (1 g) DSC	605
358.15 K, modulated-temperature differential scanning calorimetry MDSC	619
360.15 K, Small sample (50 mg) DSC	634
363.15 K, Large sample (1 g) DSC	610
363.15 K, modulated-temperature differential scanning calorimetry MDSC	622
365.15 K, Small sample (50 mg) DSC	637
368.15 K, Large sample (1 g) DSC	616
368.15 K, modulated-temperature differential scanning calorimetry MDSC	625
370.15 K, Small sample (50 mg) DSC	641
373.14 K, Large sample (1 g) DSC	617
373.15 K, modulated-temperature differential scanning calorimetry MDSC	628
375.15 K, Small sample (50 mg) DSC	644
378.12 K, Large sample (1 g) DSC	621
378.15 K, modulated-temperature differential scanning calorimetry MDSC	631
380.15 K, Small sample (50 mg) DSC	648
383.15 K, modulated-temperature differential scanning calorimetry MDSC	635
383.16 K, Large sample (1 g) DSC	626
385.15 K, Small sample (50 mg) DSC	652
388.15 K, Large sample (1 g) DSC	631
388.15 K, modulated-temperature differential scanning calorimetry MDSC	637
390.15 K, Small sample (50 mg) DSC	655
393.13 K, Large sample (1 g) DSC	636
393.15 K, modulated-temperature differential scanning calorimetry MDSC	640
395.15 K, Small sample (50 mg) DSC	658
398.15 K, modulated-temperature differential scanning calorimetry MDSC	642
398.17 K, Large sample (1 g) DSC	639
400.15 K, Small sample (50 mg) DSC	663
403.14 K, Large sample (1 g) DSC	642
403.15 K, modulated-temperature differential scanning calorimetry MDSC	645
405.15 K, Small sample (50 mg) DSC	666
408.15 K, modulated-temperature differential scanning calorimetry MDSC	648
408.18 K, Large sample (1 g) DSC	644
410.15 K, Small sample (50 mg) DSC	670
413.15 K, Large sample (1 g) DSC	647
413.15 K, modulated-temperature differential scanning calorimetry MDSC	651
415.15 K, Small sample (50 mg) DSC	673
418.18 K, Large sample (1 g) DSC	649
420.15 K, Small sample (50 mg) DSC	677
423.14 K, Large sample (1 g) DSC	651
425.15 K, Small sample (50 mg) DSC	680

CCn1cc[n+](C)c1.O=S(=O)([O-])C(F)(F)F [1-ethyl-3-methylimidazolium trifluoromethanesulfonate]
Conditions	molar heat capacity at constant pressure [J/K/mol]
313.13 K, Large sample (1 g) DSC	384
315.15 K, Small sample (50 mg) DSC	386
318.13 K, Large sample (1 g) DSC	385
320.15 K, Small sample (50 mg) DSC	388
323.12 K, Large sample (1 g) DSC	386
325.15 K, Small sample (50 mg) DSC	390
328.15 K, modulated-temperature differential scanning calorimetry MDSC	392
328.16 K, Large sample (1 g) DSC	384
330.15 K, Small sample (50 mg) DSC	392
333.14 K, Large sample (1 g) DSC	383
333.15 K, modulated-temperature differential scanning calorimetry MDSC	395
335.15 K, Small sample (50 mg) DSC	394
338.15 K, modulated-temperature differential scanning calorimetry MDSC	397
338.17 K, Large sample (1 g) DSC	387
340.15 K, Small sample (50 mg) DSC	395
343.15 K, modulated-temperature differential scanning calorimetry MDSC	398
343.17 K, Large sample (1 g) DSC	391
345.15 K, Small sample (50 mg) DSC	396
348.13 K, Large sample (1 g) DSC	392
348.15 K, modulated-temperature differential scanning calorimetry MDSC	400
350.15 K, Small sample (50 mg) DSC	397
353.15 K, modulated-temperature differential scanning calorimetry MDSC	402
353.16 K, Large sample (1 g) DSC	393
355.15 K, Small sample (50 mg) DSC	399
358.12 K, Large sample (1 g) DSC	395
358.15 K, modulated-temperature differential scanning calorimetry MDSC	404
360.15 K, Small sample (50 mg) DSC	401
363.14 K, Large sample (1 g) DSC	398
363.15 K, modulated-temperature differential scanning calorimetry MDSC	405
365.15 K, Small sample (50 mg) DSC	403
368.14 K, Large sample (1 g) DSC	400
368.15 K, modulated-temperature differential scanning calorimetry MDSC	408
370.15 K, Small sample (50 mg) DSC	405
373.14 K, Large sample (1 g) DSC	401
373.15 K, modulated-temperature differential scanning calorimetry MDSC	409
375.15 K, Small sample (50 mg) DSC	406
378.13 K, Large sample (1 g) DSC	402
378.15 K, modulated-temperature differential scanning calorimetry MDSC	411
380.15 K, Small sample (50 mg) DSC	409
383.15 K, modulated-temperature differential scanning calorimetry MDSC	412
383.17 K, Large sample (1 g) DSC	405
385.15 K, Small sample (50 mg) DSC	410
388.15 K, Large sample (1 g) DSC	407
388.15 K, modulated-temperature differential scanning calorimetry MDSC	414
390.15 K, Small sample (50 mg) DSC	412
393.14 K, Large sample (1 g) DSC	410
393.15 K, modulated-temperature differential scanning calorimetry MDSC	416
395.15 K, Small sample (50 mg) DSC	414
398.15 K, modulated-temperature differential scanning calorimetry MDSC	416
398.17 K, Large sample (1 g) DSC	411
400.15 K, Small sample (50 mg) DSC	416
403.15 K, Large sample (1 g) DSC	414
403.15 K, modulated-temperature differential scanning calorimetry MDSC	418
405.15 K, Small sample (50 mg) DSC	418
408.12 K, Large sample (1 g) DSC	416
408.15 K, modulated-temperature differential scanning calorimetry MDSC	419
410.15 K, Small sample (50 mg) DSC	420
413.15 K, Large sample (1 g) DSC	419
413.15 K, modulated-temperature differential scanning calorimetry MDSC	421
415.15 K, Small sample (50 mg) DSC	422
418.17 K, Large sample (1 g) DSC	421
420.15 K, Small sample (50 mg) DSC	424
423.14 K, Large sample (1 g) DSC	422
425.15 K, Small sample (50 mg) DSC	425

c1ccccc1 [benzene]
Small sample (50 mg) DSC
Conditions	molar heat capacity at constant pressure [J/K/mol]
295.15 K	134.8
300.15 K	135.4
305.15 K	136.5
310.15 K	137.9
315.15 K	139.2
320.15 K	140.85
325.15 K	142.5
330.15 K	144.15
335.15 K	145.8
340.15 K	147.55
345.15 K	149.3
350.15 K	151.2

CCCC[n+]1ccccc1.O=S(=O)([N-]S(=O)(=O)C(F)(F)F)C(F)(F)F [1-butylpyridinium bis[(trifluoromethyl)sulfonyl]imide]
Conditions	molar heat capacity at constant pressure [J/K/mol]
323.18 K, Large sample (1 g) DSC	592
328.15 K, modulated-temperature differential scanning calorimetry MDSC	604
328.18 K, Large sample (1 g) DSC	595
330.15 K, Small sample (50 mg) DSC	587
333.13 K, Large sample (1 g) DSC	596
333.15 K, modulated-temperature differential scanning calorimetry MDSC	607
335.15 K, Small sample (50 mg) DSC	590
338.14 K, Large sample (1 g) DSC	600
338.15 K, modulated-temperature differential scanning calorimetry MDSC	610
340.15 K, Small sample (50 mg) DSC	594
343.15 K, modulated-temperature differential scanning calorimetry MDSC	610
343.16 K, Large sample (1 g) DSC	603
345.15 K, Small sample (50 mg) DSC	596
348.12 K, Large sample (1 g) DSC	603
348.15 K, modulated-temperature differential scanning calorimetry MDSC	616
350.15 K, Small sample (50 mg) DSC	600
353.14 K, Large sample (1 g) DSC	604
353.15 K, modulated-temperature differential scanning calorimetry MDSC	615
355.15 K, Small sample (50 mg) DSC	603
358.15 K, Large sample (1 g) DSC	609
358.15 K, modulated-temperature differential scanning calorimetry MDSC	621
360.15 K, Small sample (50 mg) DSC	605
363.15 K, modulated-temperature differential scanning calorimetry MDSC	624
363.17 K, Large sample (1 g) DSC	614
365.15 K, Small sample (50 mg) DSC	607
368.15 K, modulated-temperature differential scanning calorimetry MDSC	623
368.17 K, Large sample (1 g) DSC	617
370.15 K, Small sample (50 mg) DSC	610
373.15 K, modulated-temperature differential scanning calorimetry MDSC	628
373.16 K, Large sample (1 g) DSC	617
375.15 K, Small sample (50 mg) DSC	613
378.13 K, Large sample (1 g) DSC	618
378.15 K, modulated-temperature differential scanning calorimetry MDSC	628
380.15 K, Small sample (50 mg) DSC	616
383.14 K, Large sample (1 g) DSC	621
383.15 K, modulated-temperature differential scanning calorimetry MDSC	631
385.15 K, Small sample (50 mg) DSC	619
388.14 K, Large sample (1 g) DSC	623
388.15 K, modulated-temperature differential scanning calorimetry MDSC	635
390.15 K, Small sample (50 mg) DSC	622
393.14 K, Large sample (1 g) DSC	626
393.15 K, modulated-temperature differential scanning calorimetry MDSC	636
395.15 K, Small sample (50 mg) DSC	624
398.13 K, Large sample (1 g) DSC	630
398.15 K, modulated-temperature differential scanning calorimetry MDSC	636
400.15 K, Small sample (50 mg) DSC	627
403.15 K, modulated-temperature differential scanning calorimetry MDSC	640
403.17 K, Large sample (1 g) DSC	631
405.15 K, Small sample (50 mg) DSC	630
408.14 K, Large sample (1 g) DSC	632
408.15 K, modulated-temperature differential scanning calorimetry MDSC	642
410.15 K, Small sample (50 mg) DSC	633
413.15 K, modulated-temperature differential scanning calorimetry MDSC	644
413.16 K, Large sample (1 g) DSC	633
415.15 K, Small sample (50 mg) DSC	635
418.13 K, Large sample (1 g) DSC	636
418.15 K, modulated-temperature differential scanning calorimetry MDSC	645
420.15 K, Small sample (50 mg) DSC	639
423.15 K, Large sample (1 g) DSC	635
425.15 K, Small sample (50 mg) DSC	641
